Measurements as given in patent publication US12295397B2, “Dietary peptides” (Diet4Life APS, priority 2015, dated 2025).
No end group written: not given here.

Experiments:
[1] = molecular target: pepsin (Homo sapiens, UniProt P0DJD8); assay: Pepsin digestion of meat, resistance of peptide to pepsin degradation; format: in vitro ADME; details: present in proteolytic digests
Protocol: Minced meat is diluted 1-10 times with distilled water, adjusted to pH 1-3 with hydrochloric acid, and incubated with 0.01-10% pepsin (w/w) at 4-40° C. for ½-12 h with adequate mixing. Insoluble material is removed by centrifugation at 100-1000×g for 3-30 min, and supernatant is neutralized with NaOH. Using sterile conditions, low molecular weight peptides in supernatant are recovered by tangential ultrafiltration at 4-40° C. for ½-12 h, and excess water is evaporated at 25-50° C. for up to 12 h. The concentrated dialysate is tested for bioactivity with cells and used for further purification by HPLC.

[2] = Stability of peptides in Fetal Bovine Serum, remaining activity read out in intestinal cells; format: in vitro ADME; details: fold more stable than NT(8-13)
Protocol: All peptides were incubated at 10^−5 M with Fetal Bovine Serum (FBS; final concentration of 66.7%) (Sigma Aldrich, Denmark) at 37° C. for 3 hours. The peptide degradation was terminated using 1 M phosphoric acid (final 0.4 M, pH ˜1.2) and neutralized to pH 7.2-7.4 with NaOH before testing activity in intestinal cells. As for small intestine homogenates, a zero degradation control was included for each peptide.
DC7-2, NT, DKPYIL (SEQ ID NO: 8) and NT-(8-13) (final concentration of 10^-6 M) were incubated either with FBS or with 270× diluted intestinal homogenate at 37° C. for various time points with shaking. Degradation was stopped with 1 M phosphoric acid and the samples were subsequently neutralized and immediately tested with intestinal cells as described above. Control for zero degradation was included for each peptide as above. […]
(§1) Notes for Tables 1) Stability in serum is expressed as fraction of peptide activity left after 10 min of incubation in serum at 37° C. compared with undigested sample as described in Examples. 2) Stability in intestine is expressed as % activity left after 30 min incubation in intestine homogenate at 37° C. as described in Examples.

[3] = Stability of peptides in small intestine homogenate, remaining activity read out in intestinal cells; format: in vitro ADME, mice; details: fold more stable than NT(8-13)
Protocol: Small intestines from 20 Swiss-Webster males were homogenized in 350 ml Dulbecco's phosphate-buffered saline (PBS) (pH 7.4) (ThermoFischer Scientific, Denmark) with a IKA® basic 18 Ultra-Turrax tissue homogenizer set a speed 5 followed by filtration using 100 μm nylon mesh filter. Protein concentration was 6 mg/ml using the bicinconinic acid assay (ThermoFischer Scientific, Denmark) and bovine serum albumin as standard. The intestine homogenate was diluted 10 times in HBSS containing 25 mM HEPES (pH 7.4), and further diluted 30×, 90×, 270×, 810× or 2430× before incubation with peptides. All solutions were prewarmed to 37° C. before mixing with peptide solutions.
Peptides were incubated at 10^−5 M with dilutions of small intestine homogenate at 37° C. for 90 minutes with shaking. Reactions were stopped by addition of 1 M phosphoric acid (final 0.4 M, pH ˜1.2). Each peptide incubation mix was then neutralized with NaOH to pH 7.2-7.4 and immediately tested for activity in intestinal cells. […]
as §1

pepsin, sequence (P0DJD8 63-388): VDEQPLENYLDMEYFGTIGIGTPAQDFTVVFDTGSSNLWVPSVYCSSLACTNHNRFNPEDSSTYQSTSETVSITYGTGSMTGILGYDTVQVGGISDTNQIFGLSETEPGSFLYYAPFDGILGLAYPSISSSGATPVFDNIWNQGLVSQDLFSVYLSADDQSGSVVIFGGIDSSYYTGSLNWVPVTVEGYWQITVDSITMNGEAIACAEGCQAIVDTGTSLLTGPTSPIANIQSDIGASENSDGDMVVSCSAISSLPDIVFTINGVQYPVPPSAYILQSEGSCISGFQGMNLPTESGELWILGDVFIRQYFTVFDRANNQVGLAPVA

| Substance | Resistance to pepsin degradation [1] | Stability in serum relative to neurotensin (8-13) RRPYIL [2] | Stability in intestine homogenate relative to neurotensin (8-13) RRPYIL [3] |
| --- | --- | --- | --- |
| ASDKPYIL [Peptide 36036, A SDKPYIL] | resistant to pepsin degradation |  |  |
| DKPYIL [Peptide 35978, D KPYIL] |  | around 100 times | 100-1000 × |
